According to ChEMBL document CHEMBL1275587, “Emergence of ciprofloxacin-nonsusceptible Streptococcus pyogenes isolates from healthy children and pediatric patients in Portugal” (2010):
In brackets after ≈: the same amount, converted by molar mass.

Columns and labels:
Format in all cases: functional
Streptococcus pyogenes [1] = experiment: Antimicrobial activity against ciprofloxacin-nonsusceptible Streptococcus pyogenes isolates assessed as susceptible isolates by agar dilution method
Streptococcus pyogenes [2] = experiment: Antimicrobial activity against ciprofloxacin-nonsusceptible Streptococcus pyogenes isolates assessed as resistant isolates by agar dilution method
Streptococcus pyogenes [3] = experiment: Antimicrobial activity against ciprofloxacin-nonsusceptible Streptococcus pyogenes isolates by agar dilution method
Streptococcus pyogenes [4] = experiment: Antimicrobial activity against ciprofloxacin-nonsusceptible Streptococcus pyogenes isolates assessed as intermediate resistant isolates by agar dilution method
Streptococcus pyogenes [5] = experiment: Antimicrobial activity against ciprofloxacin-nonsusceptible, AD PFGE pattern, […] sequence type, ParC S79A mutant isolated from oropharyngeal colonization and onsillitis/pharyngitis
Streptococcus pyogenes [6] = experiment: Antimicrobial activity against ciprofloxacin-nonsusceptible, K PFGE pattern, emm5 type Streptococcus pyogenes with ST99 sequence type, ParC D83G isolated from oropharyngeal colonization
Streptococcus pyogenes [7] = experiment: Antimicrobial activity against ciprofloxacin-nonsusceptible, CJ PFGE pattern, emm89 type Streptococcus pyogenes with ST101 sequence type isolated from tonsillitis/pharyngitis
Streptococcus pyogenes [8] = experiment: Antimicrobial activity against ciprofloxacin-nonsusceptible, DY PFGE pattern, emm6 type Streptococcus pyogenes with ST382 sequence type, ParC S79A mutant isolated from oropharyngeal colonization
Streptococcus pyogenes [9] = experiment: Antimicrobial activity against ciprofloxacin-nonsusceptible, BT PFGE pattern, emm28 type Streptococcus pyogenes with ST52 sequence type, ParC D83G mutant isolated from skin/soft tissue infection
Streptococcus pyogenes [10] = experiment: Antimicrobial activity against ciprofloxacin-nonsusceptible, AM PFGE pattern, emm6 type Streptococcus pyogenes with ST382 sequence type, ParC S79A mutant isolated from oropharyngeal colonization
Streptococcus pyogenes [11] = experiment: Antimicrobial activity against ciprofloxacin-nonsusceptible, AD PFGE pattern, emm6 type Streptococcus pyogenes with ST382 sequence type, ParC S79A mutant isolated from oropharyngeal colonization, tonsillitis/pharyngitis and skin/soft tissue infection
Streptococcus pyogenes [12] = experiment: Antimicrobial activity against ciprofloxacin-nonsusceptible, AD PFGE pattern, […] sequence type, ParC S79A mutant isolated from oropharyngeal colonization
Streptococcus pyogenes [13] = experiment: Antimicrobial activity against ciprofloxacin-nonsusceptible, DX PFGE pattern, emm6 type Streptococcus pyogenes with ST382 sequence type, ParC S79A mutant isolated from oropharyngeal colonization

SMILES	Activity (Streptococcus pyogenes [1])	Activity (Streptococcus pyogenes [2])	MIC (Streptococcus pyogenes [3])	MIC50 (Streptococcus pyogenes [3])	MIC90 (Streptococcus pyogenes [3])	Activity (Streptococcus pyogenes [4])	MIC (Streptococcus pyogenes [5])	MIC (Streptococcus pyogenes [6])	MIC (Streptococcus pyogenes [7])	MIC (Streptococcus pyogenes [8])	MIC (Streptococcus pyogenes [9])	MIC (Streptococcus pyogenes [10])	MIC (Streptococcus pyogenes [11])	MIC (Streptococcus pyogenes [12])	MIC (Streptococcus pyogenes [13])
CCC[C@@H]1C[C@@H](C(=O)N[C@@H]([C@H]2O[C@H](SC)[C@H](O)[C@@H](O)[C@H]2O)[C@H](C)Cl)N(C)C1 [CLINDAMYCIN]	98.5%	1.5%	≤ 0.25 µg/mL	≤ 0.25 µg/mL	≤ 0.25 µg/mL	0%	–	–	–	–	–	–	–	–	–
CN[C@H](CC(C)C)C(=O)N[C@H]1C(=O)N[C@@H](CC(N)=O)C(=O)N[C@H]2C(=O)N[C@H]3C(=O)N[C@H](C(=O)N[C@H](C(=O)O)c4cc(O)cc(O)c4-c4cc3ccc4O)[C@H](O)c3ccc(c(Cl)c3)Oc3cc2cc(c3O[C@@H]2O[C@H](CO)[C@@H](O)[C@H](O)[C@H]2O[C@H]2C[C@](C)(N)[C@H](O)[C@H](C)O2)Oc2ccc(cc2Cl)[C@H]1O [VANCOMYCIN]	100%	0%	≤ 0.25 µg/mL	0.5 µg/mL (≈ 0.345 µM)	0.5 µg/mL (≈ 0.345 µM)	0%	–	–	–	–	–	–	–	–	–
CN(C)[C@@H]1C(O)=C(C(N)=O)C(=O)[C@@]2(O)C(O)=C3C(=O)c4c(O)cccc4[C@@](C)(O)[C@H]3C[C@@H]12 [TETRACYCLINE]	98.5%	1.5%	≤ 2 µg/mL	≤ 2 µg/mL	≤ 2 µg/mL	0%	–	–	–	–	–	–	–	–	–
C[C@H]1COc2c(N3CCN(C)CC3)c(F)cc3c(=O)c(C(=O)O)cn1c23.C[C@H]1COc2c(N3CCN(C)CC3)c(F)cc3c(=O)c(C(=O)O)cn1c23.O [LEVOFLOXACIN]	92.4%	0%	2 µg/mL	2 µg/mL	2 µg/mL	7.6%	2 µg/mL	2 µg/mL	2 µg/mL	2 µg/mL	2 µg/mL	2 µg/mL	2 µg/mL	4 µg/mL	2 µg/mL
CO/N=C(\C(=O)N[C@@H]1C(=O)N2C(C(=O)O)=C(COC(C)=O)CS[C@H]12)c1csc(N)n1 [CEFOTAXIME]	100%	0%	≤ 0.06 µg/mL	≤ 0.06 µg/mL	≤ 0.06 µg/mL	0%	–	–	–	–	–	–	–	–	–
CN(C)c1cc(NC(=O)CNC(C)(C)C)c(O)c2c1C[C@H]1C[C@H]3[C@H](N(C)C)C(O)=C(C(N)=O)C(=O)[C@@]3(O)C(O)=C1C2=O [TIGECYCLINE]	–	–	0.025 µg/mL (≈ 0.0427 µM)	–	–	–	–	–	–	–	–	–	–	–	–
COc1c(N2C[C@@H]3CCCN[C@@H]3C2)c(F)cc2c(=O)c(C(=O)O)cn(C3CC3)c12 [MOXIFLOXACIN]	–	–	≤ 0.25 µg/mL	0.5 µg/mL (≈ 1.25 µM)	0.5 µg/mL (≈ 1.25 µM)	–	0.5 µg/mL (≈ 1.25 µM)	0.5 µg/mL (≈ 1.25 µM)	0.5 µg/mL (≈ 1.25 µM)	0.5 µg/mL (≈ 1.25 µM)	–	0.5 µg/mL (≈ 1.25 µM)	–	1 µg/mL (≈ 2.49 µM)	0.5 µg/mL (≈ 1.25 µM)
O=C(O)c1cn(C2CC2)c2cc(N3CCNCC3)c(F)cc2c1=O [CIPROFLOXACIN]	–	–	2 µg/mL (≈ 6.04 µM)	–	–	–	2 µg/mL (≈ 6.04 µM)	2 µg/mL (≈ 6.04 µM)	2 µg/mL (≈ 6.04 µM)	4 µg/mL (≈ 12.1 µM)	2 µg/mL (≈ 6.04 µM)	2 µg/mL (≈ 6.04 µM)	2 µg/mL (≈ 6.04 µM)	4 µg/mL (≈ 12.1 µM)	2 µg/mL (≈ 6.04 µM)
CC1(C)S[C@@H]2[C@H](NC(=O)Cc3ccccc3)C(=O)N2[C@H]1C(=O)O [PENICILLIN G]	100%	0%	≤ 0.03 µg/mL	≤ 0.03 µg/mL	≤ 0.03 µg/mL	0%	–	–	–	–	–	–	–	–	–
CC[C@H]1OC(=O)[C@H](C)[C@@H](O[C@H]2C[C@@](C)(OC)[C@@H](O)[C@H](C)O2)[C@H](C)[C@@H](O[C@@H]2O[C@H](C)C[C@H](N(C)C)[C@H]2O)[C@](C)(O)C[C@@H](C)C(=O)[C@H](C)[C@@H](O)[C@]1(C)O [ERYTHROMYCIN]	98.5%	1.5%	≤ 0.25 µg/mL	≤ 0.25 µg/mL	≤ 0.25 µg/mL	0%	–	–	–	–	–	–	–	–	–
CC1(C)S[C@@H]2[C@H](NC(=O)[C@H](N)c3ccccc3)C(=O)N2[C@H]1C(=O)O [AMPICILLIN]	100%	0%	≤ 0.25 µg/mL	≤ 0.25 µg/mL	≤ 0.25 µg/mL	0%	–	–	–	–	–	–	–	–	–
